{"source": "paper PMC7746742", "about": "“The novel rexinoid MSU-42011 is effective for the treatment of preclinical Kras-driven lung cancer” (Scientific Reports, 2020)", "key": {"[1]": {"assay": "Mouse weights as a marker of drug toxicity", "type": "in vivo, A/J mice", "settings": "rexinoids in diet; initial week 6, final week 20", "source_text": "Mouse weights were monitored as a marker of drug toxicity (Supplemental Fig. 3). […] There were no significant differences in the average weights between groups of mice on single drugs.\nControl Bexarotene 42011 C/P Bex + C/P 42011 + C/P\nInitial weight Final weight\nSupplemental Fig 3: Mouse weights. A/J mice were weighed weekly during the study. Values shown represent average mouse weights (n = 14-15/group) before treatment diets (initial weight at week 6) and at the end of the study (final weight at week 20). * p < 0.01 compared to control, # p < 0.01 compared to bexarotene, ! p < 0.05 compared to MSU-42011 (one-way ANOVA followed by Tukey HSD); ** p < 0.05, *** p < 0.01 (two-tailed t test)."}, "Kras-driven lung tumors": {"tested_on": "Kras-driven lung tumors", "assay": "Treatment of established vinyl carbamate-induced lung adenocarcinomas in A/J mice", "type": "in vivo", "method": "All experiments were performed ethically in accordance with the best practices and AAALAC-accredited Standards for the Management of Laboratory Animals at Michigan State University (MSU). These standards include making every effort to minimize suffering. Mice were euthanized by inhalation of carbon dioxide followed by removal of the lungs. All animal protocols were approved by the Institutional Animal Care and Use Committee (IACUC, protocol 201,800,050)) at MSU. At 7 and 8 weeks of age, A/J female mice (Jackson Laboratories) were injected i.p. with vinyl carbamate (Toronto Research Chemicals, 0.32 mg/mouse). Mice were fed a semi-synthetic diet (AIN-93G BioServ, Flemington NJ), beginning one week before initiation with vinyl carbamate and then for 8 weeks after the first injection. The mice were then randomized into groups (n = 15 mice/group) and fed treatment diets (100 mg rexinoid/kg AIN-93G diet or ~ 25 mg/kg body weight) for 12 weeks. Rexinoids were dissolved in a vehicle of 12.5 ml ethanol and 37.5 ml Neobee oil (Spectrum Chemical, Gardena CA) per kg AIN-93G diet. Six total doses of paclitaxel (Fisher; 15 mg/kg i.p.) and then carboplatin (Fisher; 50 mg/kg i.p.) were given every other week, beginning 9 weeks after injection with vinyl carbamate. After 12 weeks on the treatment diets, blood and lungs were harvested. Lungs were inflated with PBS and surface lesions counted. The left lung was fixed in neutral-buffered formalin (NBF), then sample numbers blinded and randomized. Grossly visible lung tumors on the surface of the left lung were counted. The left lung was embedded in paraffin, step-sectioned (6 sections/lung, 200 microns apart) and then stained with Haemotoxylin and Eosin (H&E). The number, size, and histopathology of tumors on the slides were then evaluated as described. The right lobes of the lung were divided into halves. One half was analyzed by flow cytometry and the other half flash frozen (CO2 and ethanol bath) and stored at − 80 °C.\nAt 11, 15, and 20 weeks after initiation, anesthesia was induced using 2–4% isofluorane in oxygen at 0.8–2 L/min in a chamber and then maintained using 1.5–2% isofluorane in oxygen at 0.8 L/min using a nosecone. Animals were kept on a heating pad or a heated platform while under anesthesia. Fur was removed from the thoracic area using a chemical depilitory (Nair) immediately prior to imaging. A Vevo 2100 (Fujifilm VisualSonics) high-frequency ultrasound with a MS550D 40 MHz transducer was used to image lung tumors."}, "A549 lung cancer cells": {"tested_on": "A549 lung cancer cells", "assay": "MTT proliferation assay", "type": "cell-based, human", "settings": "0–1 μM rexinoids, 72 hr", "method": "were treated with 0-1 μM rexinoids for 72 hr. Proliferation was measured using the MTT assay.\nMTT Assay. A549 cells were plated in 96-well plates (2,000 cells/well). After overnight attachment, cells were treated with 2 fold dilutions (0-1000 nM rexinoids) for 72 hr. 50 μL 3-(4,5-dimethylthiazol-2-yl)-2,5-diphenyltetrazolium bromide (MTT; Sigma M2128) was added to each well, and cells were incubated at 37 °C for 4 hr. Media was removed and cells were lysed with developing solution (0.04 M HCl in isopropanol). Plates were read at 550 nm.\n(also on this page, place not known: 110A549 Cell Proliferation (% DMSO Control) 37°C)"}, "SREBP": {"tested_on": "SREBP", "assay": "SREBP protein expression in HepG2 cells (western blot)", "type": "cell-based, human", "settings": "300 nM rexinoids, 24 h", "method": "Although we have confirmed that the iNOS assay correlates with in vivo efficacy, few investigators have used the induction of SREBP in vitro as a biomarker to predict the ability of novel rexinoids to increase triglycerides in vivo. Elevated triglycerides are a side-effect found with many RXR agonists in preclinical models and by bexarotene in humans[13],[14]. […] HepG2 human liver cells were used, as the liver is the major organ that regulates lipid homeostasis.\nHepG2 were plated in 6-well plates (1 × 10^6 cells/well) and, after allowing the cells to attach overnight, were treated with 300 nM rexinoids and/or varying concentrations of T0901317 (TOCRIS # 2373), GSK 2033 (TOCRIS # 5694), HX 531 (TOCRIS # 3912) for 8 h. Total RNA was isolated with TRIzol (Invitrogen, Carlsbad, CA) and 2 µg RNA was used to synthesize cDNA using the SuperScript III reverse transcriptase kit (Invitrogen, Carlsbad, CA). Primers (IDT) for SREBP (F: 5′-GCCGGTTGATAGGCAGCTT-3′; R: 5′-GGTGAGTGGCGGAACCATT-3′) and GAPDH (F: 5′-[…]-3′; R: 5′-[…]-3′), the SYBR Green Supermix (Bio-rad Laboratories, Hercules, CA) and the QuantStudio 7 Flex Real-Time PCR system (95 °C for 20 s followed by 40 cycles of 95 °C for 15 s and 60 °C for 1 min were used to detect mRNA expression. Relative SREBP/GAPDH gene expression was calculated by the delta-delta Ct method. To evaluate protein expression by western blotting, HepG2 cells were plated as above and treated with 300 nM of rexinoids for 24 h. Cells were harvested and lysed in RIPA buffer (1 M Tris–Cl, 5 M NaCl, pH 7.4, 0.5 M EDTA, 25 mM sodium deoxycholate, 1% triton-X, 0.1% SDS, 0.0125% aprotinin) with protease inhibitors (1% PMSF/0.5% apoprotein/0.1%leupeptin). Protein concentration was measured using a BCA assay (Sigma-Aldrich). Proteins (10 µg/well) were separated in 10% SDS-PAGE gels and transferred to nitrocellulose membranes. Membranes were incubated with SREBP (Active Motif; 1:1000) and GAPDH (Santa Cruz Biotechnology; 1:8000) primary antibodies followed by anti-rabbit secondary antibodies conjugated to horseradish peroxidase (Cell Signaling). Signal was detected using the ECL Western Blotting Substrate (GE Healthcare), and protein levels quantified using ImageJ."}, "[2]": {"settings": "rexinoids 100 mg/kg diet 12 weeks, C/P i.p. x6"}, "[3]": {"settings": "rexinoids 100 mg/kg diet 12 weeks, C/P i.p. x6, mean ± SE"}, "[4]": {"settings": "tumor histopathology, 12 weeks of treatment"}}, "data": [{"smiles": "C=C(c1ccc(C(=O)O)cc1)c1cc2c(cc1C)C(C)(C)CCC2(C)C", "note": "[Bexarotene]", "values": [{"measurement": "Mouse weights during the study", "setting": "[1]", "result": "gained weight as expected"}, {"measurement": "Single agent activity in this model", "setting": "Kras-driven lung tumors; 100 mg/kg diet, 12 weeks", "result": "inactive"}, {"measurement": "Tumor grades compared to the controls", "setting": "Kras-driven lung tumors; 12 weeks of treatment", "result": "no differences"}, {"measurement": "Average # tumors/slide", "setting": "Kras-driven lung tumors; rexinoids 100 mg/kg diet 12 weeks, C 50 mg/kg and P 15 mg/kg i.p. x6, mean ± SE", "result": "3.37 ± 0.3"}, {"measurement": "Average # tumors/slide (% control)", "setting": "Kras-driven lung tumors; [2]", "result": 79, "unit": "%"}, {"measurement": "Average tumor burden (% control)", "setting": "Kras-driven lung tumors; [2]", "result": 78, "unit": "%"}, {"measurement": "Average tumor size (% control)", "setting": "Kras-driven lung tumors; [2]", "result": 100, "unit": "%"}, {"measurement": "Average tumor burden", "setting": "Kras-driven lung tumors; [3]", "result": "0.72 ± 0.2", "unit": "mm^3"}, {"measurement": "Average tumor size", "setting": "Kras-driven lung tumors; [3]", "result": "0.22 ± 0.04", "unit": "mm^3"}, {"measurement": "# High grade tumors", "setting": "Kras-driven lung tumors; [4]", "result": 71}, {"measurement": "# Low grade tumors", "setting": "Kras-driven lung tumors; [4]", "result": "1 (1%)"}, {"measurement": "# Medium grade", "setting": "Kras-driven lung tumors; [4]", "result": "29 (29%)"}, {"measurement": "High grade tumors (% total)", "setting": "Kras-driven lung tumors; [4]", "result": 70, "unit": "%"}, {"measurement": "Low grade tumors (% total)", "setting": "Kras-driven lung tumors; [4]", "result": "1 (1%)"}, {"measurement": "Medium grade (% total)", "setting": "Kras-driven lung tumors; [4]", "result": "29 (29%)"}, {"measurement": "Growth / proliferation of A549 lung cancer cells", "setting": "A549 lung cancer cells", "result": "do not inhibit proliferation"}, {"measurement": "SREBP protein levels compared to DMSO control", "setting": "SREBP", "result": "increased SREBP protein levels"}]}]}
